25 molecules from ChEMBL document CHEMBL1121483, “Thrombin inhibitors. 1. Ester derivatives of N alpha-(arylsulfonyl)-L-arginine” (J Med Chem, 1980) can be followed below.

Bounds are passed on as bounds.

Chain of Serine protease 1 (Homo sapiens) (P07477 whole entry): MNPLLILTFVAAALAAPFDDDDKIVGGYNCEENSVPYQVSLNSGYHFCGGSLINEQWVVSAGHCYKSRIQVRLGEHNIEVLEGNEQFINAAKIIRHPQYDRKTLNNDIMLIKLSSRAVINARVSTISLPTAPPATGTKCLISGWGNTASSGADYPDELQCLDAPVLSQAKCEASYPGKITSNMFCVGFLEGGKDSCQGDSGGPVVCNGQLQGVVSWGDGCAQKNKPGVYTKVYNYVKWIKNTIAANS

The target of one experiment is T1, Prothrombin (Bos taurus, UniProt P00735). The experiment in a line: Concentration at which the clotting time was prolonged by twice the control was determined using topical bovine thrombin. It counts as functional. The following applies: read-out: I50.
As for `COC(=O)C(CCCN=C(N)N)NS(=O)(=O)c1ccc(N)cc1` (configuration not stated), the IC50 came to 4800 µM.

Turning to `CN(C)c1cccc2c(S(=O)(=O)NC(CCCNC(=N)N)C(=O)OCc3ccccc3)cccc12` (configuration not stated), the IC50 was determined as 2 µM.

For the molecule `C#CCCOC(=O)C(CCCN=C(N)N)NS(=O)(=O)c1cccc2c(N(C)C)cccc12` (configuration not stated), the IC50 was found to be 4 µM.

As to `CCOC(=O)C(CCCNC(=N)N)NS(=O)(=O)c1cccc2c(N(C)C)cccc12` (configuration not stated), the IC50 amounted to 8 µM.

As for `CCCOC(=O)C(CCCN=C(N)N)NS(=O)(=O)c1cccc2c(N(C)C)cccc12` (configuration not stated), the IC50 worked out at 2 µM.

As to `C/C=C/COC(=O)C(CCCNC(=N)N)NS(=O)(=O)c1cccc2c(N(C)C)cccc12` (configuration not stated), the IC50 was found to be 2 µM.

As to `CCC(COC(=O)C(CCCN=C(N)N)NS(=O)(=O)c1cccc2c(N(C)C)cccc12)[N+](=O)[O-]` (configuration not stated), the IC50 was determined as 200 µM.

As for `COC(=O)C(CCCN=C(N)N)NS(=O)(=O)c1cccc([N+](=O)[O-])c1` (configuration not stated), the IC50 came out at 2900 µM.

With `CC(C)COC(=O)C(CCCN=C(N)N)NS(=O)(=O)c1cccc2c(N(C)C)cccc12` (configuration not stated), the IC50 stood at 10 µM.

On to `CN(C)c1cccc2c(S(=O)(=O)NC(CCCN=C(N)N)C(=O)OC3CCCCC3)cccc12` (configuration not stated), for which the IC50 turned out to be 60 µM.

In the case of `CC(C)OC(=O)C(CCCNC(=N)N)NS(=O)(=O)c1cccc2c(N(C)C)cccc12` (configuration not stated), the IC50 amounted to 30 µM.

For the molecule `COC(=O)C(CCCN=C(N)N)NS(=O)(=O)c1ccc(F)cc1` (configuration not stated), the IC50 was found to be 5200 µM.

Take `COC(=O)C(CCCNC(=N)N)NS(=O)(=O)c1ccc(OC)cc1` (configuration not stated): the IC50 was 100 µM.

As to `COC(=O)C(CCCNC(=N)N)NS(=O)(=O)c1ccc(Cl)cc1` (configuration not stated), the IC50 was found to be 2700 µM.

In the case of `COC(=O)C(CCCNC(=N)N)NS(=O)(=O)c1cccc2ccccc12` (configuration not stated), the IC50 was determined as 520 µM.

Consider `COCCOC(=O)C(CCCNC(=N)N)NS(=O)(=O)c1cccc2c(N(C)C)cccc12` (configuration not stated), for which the IC50 stood at 5 µM.

Consider `CN(C)c1cccc2c(S(=O)(=O)NC(CCCNC(=N)N)C(=O)OCC3CCCO3)cccc12` (configuration not stated), for which the IC50 turned out to be 20 µM.

`COC(=O)C(CCCN=C(N)N)NS(=O)(=O)c1cccc2cc(N(C)C)ccc12` (configuration not stated): the IC50 turned out to be 100 µM.

For `COC(=O)C(CCCN=C(N)N)NS(=O)(=O)c1ccc([N+](=O)[O-])cc1` (configuration not stated), the IC50 is 2400 µM.

On to `COC(=O)C(CCCN=C(N)N)NS(=O)(=O)c1cccc2c(N(C)C)cccc12` (configuration not stated), for which the IC50 is 20 µM.

Take `CN(C)c1cccc2c(S(=O)(=O)NC(CCCN=C(N)N)C(=O)O)cccc12` (configuration not stated): the IC50 was above 1000 µM.

On to `CCCCCOC(=O)C(CCCN=C(N)N)NS(=O)(=O)c1cccc2c(N(C)C)cccc12` (configuration not stated), for which the IC50 stood at 49 µM.

Turning to `CCC(C)OC(=O)C(CCCNC(=N)N)NS(=O)(=O)c1cccc2c(N(C)C)cccc12` (configuration not stated), the IC50 was 2000 µM.

Consider `COC(=O)C(CCCN=C(N)N)NS(=O)(=O)c1ccc2ccccc2c1` (configuration not stated), for which the IC50 stood at 130 µM.

For the next experiment, the target named is Prothrombin (Bos taurus) (UniProt P00735). The experiment in a line: Rate of hydrolysis by thrombin relative to TAME.
Conditions: not given
On to `CN(C)c1cccc2c(S(=O)(=O)NC(CCCN=C(N)N)C(=O)OCCCCl)cccc12` (configuration not stated), for which the Relative hydrolysis is 0.084.

In another experiment the target is T1, Prothrombin. As to the kind of experiment: Concentration at which the clotting time was prolonged by twice the control was determined using commercial topical bovine thrombin.
Conditions: not given
Format: functional.
As to `COC(=O)C(CCCN=C(N)N)NS(=O)(=O)c1cccc2c(N(C)C)cccc12` (configuration not stated), the IC50 is 2000 µM.

The next experiment has as its target Serine protease 1 (Homo sapiens) (UniProt P07477). The experiment in a line: Rate of hydrolysis by trypsin relative to TAME.
Conditions: not given
Molecule `CN(C)c1cccc2c(S(=O)(=O)NC(CCCN=C(N)N)C(=O)OCCCCl)cccc12` (configuration not stated) returned a Relative hydrolysis of 0.5.
